Here are results for 50 compounds from patent US8546579B2, “Bicycloheteroaryl compounds as P2X7 modulators and uses thereof” (Evotec (US) Inc., priority 2006, dated 2013).

Each structure is given as a SMILES string. pIC50: −log10 of the molar value. Like-named read-outs stand apart in the source and are kept apart here.

The assay has as its target T1, P2X7 receptor (Homo sapiens, UniProt Q99572).
T1 construct: host or cells: THP-1 cells differentiated with LPS and IFN-γ
T1 sequence (Q99572 1-595): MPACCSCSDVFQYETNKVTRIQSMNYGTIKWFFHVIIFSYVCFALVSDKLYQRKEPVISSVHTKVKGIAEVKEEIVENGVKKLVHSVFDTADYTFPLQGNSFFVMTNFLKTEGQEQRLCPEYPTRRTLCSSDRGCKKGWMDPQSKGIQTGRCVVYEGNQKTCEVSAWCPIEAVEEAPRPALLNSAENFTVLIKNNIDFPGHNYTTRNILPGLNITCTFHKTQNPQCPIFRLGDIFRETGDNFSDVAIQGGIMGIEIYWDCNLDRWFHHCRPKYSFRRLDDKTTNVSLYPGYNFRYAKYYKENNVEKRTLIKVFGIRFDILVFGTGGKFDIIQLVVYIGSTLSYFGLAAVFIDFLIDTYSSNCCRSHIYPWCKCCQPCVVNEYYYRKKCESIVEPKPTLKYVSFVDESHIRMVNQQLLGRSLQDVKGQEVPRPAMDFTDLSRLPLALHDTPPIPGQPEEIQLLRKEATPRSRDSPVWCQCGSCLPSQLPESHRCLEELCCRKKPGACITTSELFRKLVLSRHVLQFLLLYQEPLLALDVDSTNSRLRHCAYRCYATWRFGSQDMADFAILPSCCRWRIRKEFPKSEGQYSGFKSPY
Nature of the assay: IL-1β release assay in differentiated THP-1 cells stimulated with BzATP (Example 9). It is filed as cell-based. The arrangement: inhibition: dose or concentration left out as unconfirmed. The note with it: for inhibition: THP-1, read-out: IL-1β % Inhib.; for inhibition at 0.3 µM: 0.3 μM compound, read-out: IL-1β % Inhib. @ 0.3 μM; for inhibition at 0.3 µM / inhibition at 0.1 µM: differentiated THP-1 cells, BzATP 250 uM; for pIC50: THP-1 cells, BzATP-stimulated IL-1β release, four parameter logistic fit; for inhibition at 0.1 µM: 0.1 μM compound. How it is done: THP-1 cells (ATCC Cat # 285-IF-100) are plated in 96 well plates at a concentration of 200,000 cells per well and allowed to differentiate in RPMI-1640 media (ATCC Cat # 30-2001) containing 10% FBS, 100 IU/mL penicillin, 100 ug/mL streptomycin, 100 ng/mL LPS and 100 ng/mL IFN-γ for 16 hours. Following differentiation, the cells are treated for an additional 2 hours in RPMI-1640 media containing 100 IU/mL penicillin, 100 ug/mL streptomycin and fresh LPS at 100 ng/mL. The cells are then pretreated for 30 minutes with the compound of interest at the appropriate concentration in RPMI media containing 100 IU/mL penicillin, 100 ug/mL streptomycin. Following the pretreatment 2′,3′-O-(4-benzoylbenzoyl)-adenosine 5′-triphosphate (Sigma Aldrich Cat # B6396) is added to a final concentration of 250 uM and the cells are incubated for an additional 45 minutes. 30 uL of cell supernatant is then collected and IL-1β levels determined via ELISA (R&D systems Cat. # HSLB50) according to manufacturer's recommendations using the Tecan Safire plate reader. Background adjusted IL-1β levels of drug treated and non-treated cells are used to calculate the percent inhibition.
The compounds set forth in Table 1 were tested for activity in a cellular model as described herein. Specifically, cells were pretreated with differing amounts of the compound under test and released IL-1β determined as in Example 9, above. Measurements were made and IC50 values, presented in Table 2, below, were determined by fitting the data to a four parameter logistic equation using GraphPad Prism software (GraphPad Software, Inc). The equation may be expressed by the following formula: Y=Bottom+(Top−Bottom)/(1+10^((Log EC50−X)*HillSlope)) Where X is the logarithm of concentration, Y is the response and Y starts at Bottom and goes to Top with a sigmoid shape.

Consider `CN1CCC(Cn2ccc3c(NC(=O)c4cccc5ccccc45)cccc3c2=O)CC1` [Compound 1469], for which the inhibition was in the range of 0 to 25%.

Turning to `CC(C)Cc1ccc(C(=O)Nc2cccc3c(=O)n(C)ccc23)cc1` [Compound 1425], the inhibition is 0 to 25%. `COc1ccc(C(=O)Nc2cccc3c(=O)n(CCCN4CCCC4=O)ccc23)c(C)c1` [Compound 1493]: the inhibition fell in the range of 0 to 25%. Take `COc1ccc(CC(=O)Nc2cccc3c(=O)n(Cc4cccnc4)ccc23)c(OC)c1` [Compound 1365]: the inhibition at 0.3 µM (symbols + to ++++) was 0 to 25%. As usually defined, the pIC50 is −log10 of the IC50, conventionally taken in molar units. The compound `CC(c1ccccn1)n1ccc2c(NC(=O)Cc3ccc(C(F)(F)F)c(F)c3)cccc2c1=O` (stereo not drawn) [Compound 1635] gave a pIC50 of 6.95. Moreover, where the note is “"+" class symbols”, the inhibition at 0.3 µM is no less than 76%. `O=C(Nc1cccc2c(=O)n(CC3CCOCC3)ccc12)[C@]12C[C@@H]3CC1C[C@@H](C3)C2` [Compound 1116]: the inhibition at 0.3 µM ('+' class symbols) lay in the range of 0 to 25%. Consider `COCCn1ccc2c(NC(=O)c3ccc4ccccc4c3)cccc2c1=O` [Compound 1434], for which the inhibition is 0 to 25%. Regarding `Cc1cccc(CCC(=O)Nc2cccc3c(=O)n(Cc4cccnc4)ccc23)c1` [Compound 1369], the inhibition at 0.3 µM (symbols + to ++++) was in the range of 0 to 25%. `Cc1ccc(C)c(C(=O)Nc2cccc3c(=O)n(CC(C)(C)C)ccc23)c1` [Compound 1414]: the inhibition lay in the range of 0 to 25%. The same measure, in the same setting: then `O=C(Nc1cccc2c(=O)n(Cc3ccc(OC(F)(F)F)cc3)ccc12)c1cc2ccccc2o1` [Compound 1587], with 0 to 25%. For `Cc1ccc(C)c(CC(=O)Nc2cccc3c(=O)n(CC(C)(C)C)ccc23)c1` [Compound 1051], the inhibition at 0.3 µM ('+' class symbols) is 0 to 25%. `CO[C@](C(=O)Nc1cccc2c(=O)n(CCN(C)C)ccc12)(c1ccccc1)C(F)(F)F` [Compound 1616] showed a pIC50 of less than 6.00. The inhibition at 0.3 µM ("+" class symbols) was in the range of 0 to 25%. As for `C[C@H]1CC[C@H](C(=O)Nc2cccc3c(=O)n(CC4CCOCC4)ccc23)CC1` [Compound 1395], the inhibition at 0.1 µM (symbols * to ****, read-out: IL-1β % Inhib. (asterisk symbols: at 0.1 μM)) is 0 to 25%. With `O=C(Cc1cccc2ccccc12)Nc1cccc2c(=O)n(CCN3CCOCC3)ccc12` [Compound 1203], where the note is “symbols + to ++++”, the inhibition at 0.3 µM lay in the range of 0 to 25%.

Turning to `O=C(CCc1ccccc1Cl)Nc1cccc2c(=O)n(CC3CCOCC3)ccc12` [Compound 1031], for the setting “'+' class symbols”, the inhibition at 0.3 µM fell in the range of 26 to 50%. On to `Cc1cccc(C(=O)Nc2cccc3c(=O)n(CCCN4CCCC4=O)ccc23)c1` [Compound 1513], for which the inhibition lay in the range of 0 to 25%.

For the compound `Cc1cccc(C(=O)Nc2cccc3c(=O)n(CCN(C)C)ccc23)c1` [Compound 1145], the inhibition at 0.3 µM ('+' class symbols) lay within 0 to 25%. In the case of `O=C(Cc1ccc2c(c1)OCO2)Nc1cccc2c(=O)n(Cc3cccnc3)ccc12` [Compound 1359], the inhibition at 0.3 µM (symbols + to ++++) lay in the range of 26 to 50%. Turning to `CN1CCC(Cn2ccc3c(NC(=O)c4ccc(Cl)cc4Cl)cccc3c2=O)CC1` [Compound 1460], the inhibition was in the range of 0 to 25%. `Cn1ccc2c(NC(=O)c3cc4ccccc4o3)cccc2c1=O` [Compound 1300]: the inhibition at 0.3 µM (symbols + to ++++) is 0 to 25%. Still for that read-out and setting: then `Cc1ccc(C(=O)Nc2cccc3c(=O)n(CC(C)(C)C)ccc23)cc1Cl` [Compound 1268], with 0 to 25%.

Take `CC(=O)OCCn1ccc2c(NC(=O)Cc3cc(C(F)(F)F)cc(C(F)(F)F)c3)cccc2c1=O` [Compound 1378]: the pIC50 was 6.92. The inhibition at 0.3 µM (symbols + to ++++) lay in the range of 51 to 75%. For the compound `COCCn1ccc2c(NC(=O)c3ccc(OC)cc3C)cccc2c1=O` [Compound 1060], the inhibition at 0.3 µM ('+' class symbols) lay within 0 to 25%.

As for `COc1ccc(OC)c(CC(=O)Nc2cccc3c(=O)n(Cc4cccnc4)ccc23)c1` [Compound 1352], the inhibition at 0.3 µM (symbols + to ++++) lay in the range of 0 to 25%.

On to `Cc1cc(Cl)ccc1C(=O)Nc1cccc2c(=O)n(CCN3CCOCC3)ccc12` [Compound 1221], for which the inhibition at 0.3 µM (symbols + to ++++) fell in the range of 0 to 25%. Still for that read-out and setting: then `COCCn1ccc2c(NC(=O)Cc3ccc(C)cc3)cccc2c1=O` [Compound 1318], with 0 to 25%. On the same count and under the same terms, as for `COc1ccc(CC(=O)Nc2cccc3c(=O)n(CC(C)(C)C)ccc23)c(OC)c1` [Compound 1278], the figure is 0 to 25%. Take `COCCn1ccc2c(NC(=O)Cc3c(C)cc(C)cc3C)cccc2c1=O` [Compound 1065]: the inhibition at 0.3 µM ('+' class symbols) was in the range of 0 to 25%. `COCCn1ccc2c(NC(=O)CCc3ccc(OC)cc3)cccc2c1=O` [Compound 1311]: where the note is “symbols + to ++++”, the inhibition at 0.3 µM fell in the range of 0 to 25%. With `CC(C)(C)Cn1ccc2c(NC(=O)CCc3ccccc3Cl)cccc2c1=O` [Compound 1054], under “'+' class symbols”, the inhibition at 0.3 µM is 0 to 25%. Turning to `Cc1ccc(C(=O)Nc2cccc3c(=O)n(CC4CCN(C)CC4)ccc23)c(C)c1` [Compound 1462], the inhibition lay within 0 to 25%. `COCCn1ccc2c(NC(=O)c3ccc(OC)c(C)c3)cccc2c1=O` [Compound 1340]: the inhibition at 0.3 µM (symbols + to ++++) lay in the range of 0 to 25%. On to `O=C(Cc1ccccc1Cl)Nc1cccc2c(=O)n(CCCN3CCCC3=O)ccc12` [Compound 1519], for which the inhibition lay in the range of 0 to 25%. Same read-out and setting: as for `CCOc1ccc(CC(=O)Nc2cccc3c(=O)n(Cc4ccc(OC(F)(F)F)cc4)ccc23)cc1` [Compound 1584], the figure is 0 to 25%. On to `COc1cccc(CCC(=O)Nc2cccc3c(=O)n(CCN4CCOCC4)ccc23)c1` [Compound 1041], for which the inhibition at 0.1 µM ('*' class symbols, read-out: IL-1β % Inhib. (asterisk classes, 0.1 μM)) was 0 to 25%.

Take `Cc1ccccc1C(=O)Nc1cccc2c(=O)n(Cc3ccc(OC(F)(F)F)cc3)ccc12` [Compound 1562]: the inhibition lay in the range of 0 to 25%. In the case of `Cc1ccccc1CC(=O)Nc1cccc2c(=O)n(CC3CCOCC3)ccc12` [Compound 1101], under “'+' class symbols”, the inhibition at 0.3 µM was 0 to 25%. With `Cc1cc(C)cc(CC(=O)Nc2cccc3c(=O)n(CC(C)(C)C)ccc23)c1` [Compound 1276], under “symbols + to ++++”, the inhibition at 0.3 µM fell in the range of 0 to 25%. With `COc1ccc(C(=O)Nc2cccc3c(=O)n(CCN(C)C)ccc23)cc1C` [Compound 1184], where the note is “'+' class symbols”, the inhibition at 0.3 µM is 0 to 25%. As to `COc1cccc(CC(=O)Nc2cccc3c(=O)n(CCN4CCOCC4)ccc23)c1` [Compound 1209], the inhibition at 0.3 µM (symbols + to ++++) was in the range of 0 to 25%. Turning to `COc1cccc(CC(=O)Nc2cccc3c(=O)n(CCN(C)C)ccc23)c1` [Compound 1021], the pIC50 is less than 6.00. For the same compound, the inhibition at 0.3 µM ('+' class symbols) was no less than 76%. In turn, `CC(C(=O)Nc1cccc2c(=O)n(CCN(C)C)ccc12)c1ccc(Cl)cc1` (stereo not drawn) [Compound 1391] gave a pIC50 of 7.34. Under “symbols + to ++++”, the inhibition at 0.3 µM was no less than 76%. Consider `O=C(Nc1cccc2c(=O)n(CCCN3CCCC3=O)ccc12)c1cc2cc(Cl)ccc2o1` [Compound 1543], for which the inhibition was in the range of 0 to 25%. Consider `Cc1ccc(Cl)c(C(=O)Nc2cccc3c(=O)n(CCN4CCOCC4)ccc23)c1` [Compound 1235], for which, under “symbols + to ++++”, the inhibition at 0.3 µM lay within 0 to 25%.

`CCC(C(=O)Nc1cccc2c(=O)n(CCN(C)C)ccc12)c1ccccc1` (stereo not drawn) [Compound 1020]: the pIC50 is less than 6.00. Moreover, the inhibition at 0.3 µM ('+' class symbols) was 0 to 25%. As to `Cc1ccc(CC(=O)Nc2cccc3c(=O)n(Cc4ccc(OC(F)(F)F)cc4)ccc23)cc1` [Compound 1585], the inhibition lay in the range of 0 to 25%. On to `O=C(CCc1ccccc1Cl)Nc1cccc2c(=O)n(CCCN3CCCC3=O)ccc12` [Compound 1501], for which the inhibition was 0 to 25%. In the case of `O=C(CCc1ccc(Cl)cc1)Nc1cccc2c(=O)n(CC3CCOCC3)ccc12` [Compound 1125], the inhibition at 0.3 µM ('+' class symbols) was in the range of 0 to 25%. On to `COc1ccccc1CCC(=O)Nc1cccc2c(=O)n(CC3CCN(C)CC3)ccc12` [Compound 1467], for which the inhibition was in the range of 0 to 25%. The compound `Cc1ccccc1C(=O)Nc1cccc2c(=O)n(CCN(C)C)ccc12` [Compound 1007] had a pIC50 of less than 6.00. Moreover, for the setting “'+' class symbols”, the inhibition at 0.3 µM lay in the range of 0 to 25%.
